Results published in US7122543B2, “Substituted benzoic acid derivatives having NF-κB inhibiting action” (Daiichi Suntory Pharma Co., Ltd., priority 2001, dated 2006).
≈ marks a conversion by molar mass, not a printed value.

Tested on: NF-κB
Assay: NF-κB luciferase reporter assay in A549/NF-κBLuc cells stimulated with IL-1β
Type: cell-based, human
Conditions: A549/NF-κBLuc cells; compound added 1 hour before IL-1β, 3 hours more incubation; luciferase activity as index
Method: Effects of Compounds on Human Lung Cancer A549 Cells (A549/NF-κBLuc) Stably Transfected with Luciferase Plasmid (pNFκB-Luc, Stratagene, U.S.A.) Having the NF-κB Regulatory Sequence
Using lipofectamine (Lifetech Oriental K.K., Tokyo), pNFκB-Luc were cotransfected with pSV2neo (Clontech, U.S.A.) into A549 cells (ATCC CCL185) according to the conventional method, and A549/NF-κBLuc stably transfected with pNFκB-Luc were selected by adding G418 sulfate (1 mg/ml, Lifetech Oriental K.K.) to the culture medium.
A compound prepared in an Example was added to A549/NF-κBLuc, then IL-1β which was able to activate the NF-κB was added at 1 hour thereafter and incubation was continued for 3 hours more. It has been made clear by using a luciferase activity as an index that the compound obtained in the Example suppresses the activation of NF-κB by stimulated with IL-1β.

IC50 value	Structure (SMILES)
15 µg/mL (≈ 32.6 µM)	COC1=C(OC)C(=O)C(Cc2ccc(-c3ccncc3)c(C(=O)N3CCCCC3)c2)=C(C)C1=O [Example 58a, N-[5-(5,6-Dimethoxy-3-methyl-1,4-benzoquinon-2-yl)methyl-2-(4-pyridyl)benzoyl]piperidine]
45 µg/mL (≈ 97.7 µM)	COC1=C(OC)C(=O)C(Cc2ccc(-c3ccncc3)c(C(=O)N3CCCCC3)c2)=C(C)C1=O [Example 58b, N-[5-(5,6-Dimethoxy-3-methyl-1,4-benzoquinon-2-yl)methyl-2-(4-pyridyl)benzoyl]piperidine]
>45 µg/mL	COC1=C(OC)C(=O)C(Cc2ccc(-c3ccncc3)c(C(=O)N[C@@H](C)c3ccccc3)c2)=C(C)C1=O [Example 74b, (S)-N-[5-(5,6-Dimethoxy-3-methyl-1,4-benzoquinon-2-yl)methyl-2-(4-pyridyl)benzoyl]-1-phenylethylamine]

Same assay, conditions: A549/NF-κBLuc cells; word printed in the IC50 column instead of a value

Structure (SMILES)	IC50 value (result in words)
COc1c(C)c(Cc2ccc(C(=O)O)c(-c3cccnc3)c2)c(OC)c(OC)c1OC [Example 12, 4-(3,4,5,6-Tetramethoxy-2-methylbenzyl)-2-(3-pyridyl) benzoic acid]	toxic

Same assay, conditions: Homo sapiens, A549, A549/NF-κBLuc cells; compound added 1 hour before IL-1β, 3 hours more incubation; luciferase activity as index

Structure (SMILES)	IC50
COC1=C(OC)C(=O)C(Cc2ccc(-c3ccccc3)c(C(=O)Nc3ccc(OC)cc3)c2)=C(C)C1=O [Example 52, N-[5-(5,6-Dimethoxy-3-methyl-1,4-benzoquinon-2-yl)methyl-2-phenylbenzoyl]-4-methoxyaniline]	> 45 µg/mL
COC1=C(OC)C(=O)C(Cc2ccc(-c3cccnc3)c(C(=O)O)c2)=C(C)C1=O [Example 38, 5-(5,6-Dimethoxy-3-methyl-1,4-benzoquinon-2-yl)methyl-2-(3-pyridyl)benzoic acid]	> 45 µg/mL
COC1=C(OC)C(=O)C(Cc2ccc(-c3ccc(OC)cc3)c(C(=O)Nc3ccc(OC)cc3)c2)=C(C)C1=O [Example 64, N-[5-(5,6-Dimethoxy-3-methyl-1,4-benzoquinon-2-yl)methyl-2-(4-methoxyphenyl]benzoyl)-4-methoxyaniline]	12 µg/mL
COC1=C(OC)C(=O)C(Cc2ccc(-c3cccnc3)c(C(=O)Nc3ccc(C(F)(F)F)cc3)c2)=C(C)C1=O [Example 57, N-[5-(5,6-Dimethoxy-3-methyl-1,4-benzoquinon-2-yl)methyl-2-(3-pyridyl)benzoyl]-4-trifluoromethylaniline]	> 30 µg/mL
COc1c(C)c(Cc2ccc(-c3cccnc3)c(C(=O)O)c2)c(OC)c(OC)c1OC [Example 14, 5-(3,4,5,6-Tetramethoxy-2-methylbenzyl)-2-(3-pyridyl)benzoic acid]	> 15 µg/mL
COC1=C(OC)C(=O)C(Cc2ccc(-c3ccccc3)c(C(=O)N3CCOCC3)c2)=C(C)C1=O [Example 51, N-[5-(5,6-Dimethoxy-3-methyl-1,4-benzoquinon-2-yl)methyl-2-phenylbenzoyl]morpholine]	> 30 µg/mL
COc1c(C)c(Cc2ccc(-c3ccncc3)c(C(=O)O)c2)c(OC)c(OC)c1OC [Example 15, 5-(3,4,5,6-Tetramethoxy-2-methylbenzyl)-2-(4-pyridyl)benzoic acid]	> 15 µg/mL
COC1=C(OC)C(=O)C(Cc2ccc(C(=O)Nc3ccc(OC)cc3)c(-c3cccnc3)c2)=C(C)C1=O [Example 49, N-[4-(5,6-Dimethoxy-3-methyl-1,4-benzoquinon-2-yl)methyl-2-(3-pyridyl)benzoyl]-4-methoxy-aniline]	24 µg/mL
COC1=C(OC)C(=O)C(Cc2ccc(-c3cccc(OC)c3)c(C(=O)N3CCCCC3)c2)=C(C)C1=O [Example 65, N-[5-(5,6-Dimethoxy-3-methyl-1,4-benzoquinon-2-yl)methyl-2-(3-methoxyphenyl)benzoyl]-piperidine]	40 µg/mL
COC1=C(OC)C(=O)C(Cc2ccc(C(=O)Nc3ccc(C(F)(F)F)cc3)c(-c3cccnc3)c2)=C(C)C1=O [Example 48, N-[4-(5,6-Dimethoxy-3-methyl-1,4-benzoquinon-2-yl)methyl-2-(3-pyridyl)benzoyl]-4-trifluoromethylaniline]	> 30 µg/mL
COC1=C(OC)C(=O)C(Cc2ccc(-c3ccncc3)c(C(=O)Nc3ccc(C(F)(F)F)cc3)c2)=C(C)C1=O [Example 61, N-[5-(5,6-Dimethoxy-3-methyl-1,4-benzoquinon-2-yl)methyl-2-(4-pyridyl)benzoyl]-4-trifluoromethylaniline]	> 30 µg/mL
COc1ccccc1-c1ccc(Cc2c(C)c(OC)c(OC)c(OC)c2OC)cc1C(=O)O [Example 18, 5-(3,4,5,6-Tetramethoxy-2-methylbenzyl)-2-(2-methoxyphenyl)benzoic acid]	> 15 µg/mL
COC1=C(OC)C(=O)C(Cc2ccc(-c3ccncc3)c(C(=O)O)c2)=C(C)C1=O [Example 39, 5-(5,6-Dimethoxy-3-methyl-1,4-benzoquinon-2-yl)methyl-2-(4-pyridyl)benzoic acid]	> 30 µg/mL
COC1=C(OC)C(=O)C(Cc2ccc(-c3ccccc3)c(C(=O)O)c2)=C(C)C1=O [Example 37, 5-(5,6-Dimethoxy-3-methyl-1,4-benzoquinon-2-yl)methyl-2-phenylbenzoic acid]	> 45 µg/mL
COc1cccc(-c2ccc(Cc3c(C)c(OC)c(OC)c(OC)c3OC)cc2C(=O)O)c1 [Example 17, 5-(3,4,5,6-Tetramethoxy-2-methylbenzyl)-2-(3-methoxyphenyl)benzoic acid]	> 15 µg/mL
COC1=C(OC)C(=O)C(Cc2ccc(-c3ccc(OC)cc3)c(C(=O)O)c2)=C(C)C1=O [Example 40, 5-(5,6-Dimethoxy-3-methyl-1,4-benzoquinon-2-yl)methyl-2-(4-methoxyphenyl)benzoic acid]	> 45 µg/mL
COC1=C(OC)C(=O)C(Cc2ccc(-c3cccc(OC)c3)c(C(=O)N3CCOCC3)c2)=C(C)C1=O [Example 66, N-[5-(5,6-Dimethoxy-3-methyl-1,4-benzoquinon-2-yl)methyl-2-(3-methoxyphenyl)benzoyl]-morpholine]	42 µg/mL
COC1=C(OC)C(=O)C(Cc2ccc(C(=O)Nc3ccc(C(F)(F)F)cc3)c(-c3ccccc3)c2)=C(C)C1=O [Example 45, N-[4-(5,6-Dimethoxy-3-methyl-1,4-benzoquinon-2-yl)methyl-2-phenylbenzoyl]-4-trifluoromethyl-aniline]	> 30 µg/mL
COC1=C(OC)C(=O)C(Cc2ccc(C(=O)N3CCOCC3)c(-c3cccnc3)c2)=C(C)C1=O [Example 47, N-[4-(5,6-Dimethoxy-3-methyl-1,4-benzoquinon-2-yl)methyl-2-(3-pyridyl)benzoyl]morpholine]	24 µg/mL
COC1=C(OC)C(=O)C(Cc2ccc(-c3ccccc3)c(C(=O)Nc3ccc(C(F)(F)F)cc3)c2)=C(C)C1=O [Example 53, N-[5-(5,6-Dimethoxy-3-methyl-1,4-benzoquinon-2-yl)methyl-2-phenylbenzoyl]-4-trifluoromethylaniline]	> 30 µg/mL
COC1=C(OC)C(=O)C(Cc2ccc(C(=O)O)c(-c3ccccc3)c2)=C(C)C1=O [Example 35, 4-(5,6-Dimethoxy-3-methyl-1,4-benzoquinon-2-yl)methyl-2-phenylbenzoic acid]	> 15 µg/mL
COC1=C(OC)C(=O)C(Cc2ccc(-c3cccc(OC)c3)c(C(=O)Nc3ccc(OC)cc3)c2)=C(C)C1=O [Example 67, N-[5-(5,6-Dimethoxy-3-methyl-1,4-benzoquinon-2-yl)methyl-2-(3-methoxyphenyl)benzoyl]-4-methoxyaniline]	> 45 µg/mL

Other lines, results leading:

IC50	Structure (SMILES)
> 30 µg/mL	COC1=C(OC)C(=O)C(Cc2ccc(-c3ccncc3)c(C(=O)Nc3ccc(OC)cc3)c2)=C(C)C1=O.Cl [Example 60b, N-[5-(5,6-Dimethoxy-3-methyl-1,4-benzoquinon-2-yl)methyl-2-(4-pyridyl)benzoyl]-4-methoxyaniline]
> 45 µg/mL	COC1=C(OC)C(=O)C(Cc2ccc(-c3ccncc3)c(C(=O)NC3CC3)c2)=C(C)C1=O [Example 78a, N-[5-(5,6-Dimethoxy-3-methyl-1,4-benzoquinon-2-yl)methyl-2-(4-pyridyl)benzoyl]cyclopropyl-amine]
> 45 µg/mL	COC1=C(OC)C(=O)C(Cc2ccc(-c3ccncc3)c(C(=O)N[C@H](C)c3ccccc3)c2)=C(C)C1=O [Example 75a, (R)-N-[5-(5,6-Dimethoxy-3-methyl-1,4-benzoquinon-2-yl)methyl-2-(4-pyridyl)benzoyl]-1-phenylethylamine]
> 45 µg/mL	COC1=C(OC)C(=O)C(Cc2ccc(-c3ccncc3)c(C(=O)NC3CCCCC3)c2)=C(C)C1=O [Example 76a, N-[5-(5,6-Dimethoxy-3-methyl-1,4-benzoquinon-2-yl)methyl-2-(4-pyridyl)benzoyl]cyclohexyl-amine]
> 45 µg/mL	COC1=C(OC)C(=O)C(Cc2ccc(-c3ccncc3)c(C(=O)NC3CCCC3)c2)=C(C)C1=O [Example 77a, N-[5-(5,6-Dimethoxy-3-methyl-1,4-benzoquinon-2-yl)methyl-2-(4-pyridyl)benzoyl]cyclopentylamine]
> 30 µg/mL	COC1=C(OC)C(=O)C(Cc2ccc(-c3ccncc3)c(C(=O)Nc3ccc(OC)cc3)c2)=C(C)C1=O [Example 60a, N-[5-(5,6-Dimethoxy-3-methyl-1,4-benzoquinon-2-yl)methyl-2-(4-pyridyl)benzoyl]-4-methoxyaniline]
> 45 µg/mL	CCC(CC)NC(=O)c1cc(CC2=C(C)C(=O)C(OC)=C(OC)C2=O)ccc1-c1ccncc1 [Example 79a, N-[5-(5,6-Dimethoxy-3-methyl-1,4-benzoquinon-2-yl)methyl-2-(4-pyridyl)benzoyl]-1-ethylpropylamine]

Same assay, conditions: Homo sapiens, A549, same value printed in parentheses in μM; A549/NF-κBLuc cells, IL-1β stimulation, luciferase activity

IC50	Structure (SMILES)
23 µM	COC1=C(OC)C(=O)C(Cc2ccc(-c3ccc(OC)cc3)c(C(=O)Nc3ccc(OC)cc3)c2)=C(C)C1=O [Example 64, N-[5-(5,6-Dimethoxy-3-methyl-1,4-benzoquinon-2-yl)methyl-2-(4-methoxyphenyl]benzoyl)-4-methoxyaniline]
82 µM	COC1=C(OC)C(=O)C(Cc2ccc(-c3cccc(OC)c3)c(C(=O)N3CCCCC3)c2)=C(C)C1=O [Example 65, N-[5-(5,6-Dimethoxy-3-methyl-1,4-benzoquinon-2-yl)methyl-2-(3-methoxyphenyl)benzoyl]-piperidine]
85 µM	COC1=C(OC)C(=O)C(Cc2ccc(-c3cccc(OC)c3)c(C(=O)N3CCOCC3)c2)=C(C)C1=O [Example 66, N-[5-(5,6-Dimethoxy-3-methyl-1,4-benzoquinon-2-yl)methyl-2-(3-methoxyphenyl)benzoyl]-morpholine]

Same assay, conditions: same value printed in parentheses in μM; A549/NF-κBLuc cells, IL-1β stimulation, luciferase activity

IC50	Structure (SMILES)
30 µM	COC1=C(OC)C(=O)C(Cc2ccc(-c3ccncc3)c(C(=O)N3CCCCC3)c2)=C(C)C1=O [Example 58a, N-[5-(5,6-Dimethoxy-3-methyl-1,4-benzoquinon-2-yl)methyl-2-(4-pyridyl)benzoyl]piperidine]
81 µM	COC1=C(OC)C(=O)C(Cc2ccc(-c3ccncc3)c(C(=O)N3CCCCC3)c2)=C(C)C1=O [Example 58b, N-[5-(5,6-Dimethoxy-3-methyl-1,4-benzoquinon-2-yl)methyl-2-(4-pyridyl)benzoyl]piperidine]
